Where two headings read alike, the source gives them in different places.
Columns and labels:
[1] = tested on: anxiety in the adult male rat; assay: Suppression of anxiety in the adult male rat (Vogel anticonflict test); assay type: in vivo; details: read-out: Anticonflict MED
Experimental: The anxiolytic activity of selected compounds of the invention was assessed by determining their ability to encourage behavior that had been suppressed by punishment (Vogel, J. R. et al. Psychopharmacology 1971, 21, 1). Male rats were deprived of water for 48 hours and were deprived of food for 24 hours prior to testing. After the first 24 hours of water deprivation, they were placed in the conflict chamber for a training period; wherein, they were allowed 200 unpunished licks from a bottle containing tap water. The experiment was run the next day. At the expected time of peak activity, the animals were placed in the chamber and allowed access to tap water. […] Their first lick initiates a 3-min test session. Subsequently,every 20th lick was punished by a 0.2-s shock delivered via the stainless-steel drinking-tube. Vehicle-treated control animals generally were willing to accept a median number of 3 to 8 shocks per test session. […] The Wilcoxon rank-sum test (Mann-WhitneyU-test) was used to test for an increase (p<0.05, 1-tailed) in the median number of shocks in drug-treated groups, compared to a concurrently run vehicle-treated group. The biological assay is considered to be valid if the effects of a known anxiolytic (positive control) are detected, within the same experiment. A compound was considered active if there is a significant difference in the median number of shocks tolerated between the drug-treated group and the control group. The MED was defined as the minimum dose of the drug-treatment as analyzed using the Wilcoxon rank-sum test (SAS; Statistical Analysis System, version 5.16). If the MED value is greater than 10, an active dose of the compound being tested had not been determined.

[2] = tested on: metrazol-induced convulsions; assay: Suppression of metrazol-induced convulsions (antimetrazol); assay type: in vivo, mouse (male CD1); details: Mus musculus, 0.5 h; IP; clonic convulsions, 30 min observation
Experimental: Selected compounds of the invention were tested for their ability to reduce metrazol-induced convulsions in mice (Swinyard, E. A. J. Am. Pharm Assoc. 1949, 38, 201). Male CD1 mice, were fasted at least 16 hours, were divided into equal groups and test compounds or vehicle were administered parenterally. Water was not withheld except during the period of observations. At the time of suspected peak activity, anti-pentylenetetrazol (anti-metrazol) activity was evaluated by the subcutaneous administration of the CD90 dose of metrazol (the dose of metrazol was determined from the dose-response curve producing clonic convulsions in 90% of animals that received the corresponding vehicle for this experiment). Metrazol was dissolved in 0.9% sodium chloride solution, and its dose volume was 10 ml/kg. Animals were housed individually for observation of clonic convulsions, tonic convulsions and death for a period of 30 min. Test compounds that blocked the clonic seizure component of the convulsion in at least 50% of the animals were considered active. The biological assay was considered to be valid if the effects of a known anticonvulsant (positive control) were detected, within the same experiment. Activity was reported as percent reduction of clonic convulsions from the vehicle group. The ED50 values of active compounds were calculated by the method of probits (Finney, D. J. 1971. Probit Analysis. London: Cambridge University Press) and are listed in Tables 1.

[3] = tested on: motor coordination; assay: Horizontal screen test for motor coordination; assay type: in vivo, mouse (male CD1); details: Mus musculus, CD1 mice
[4] = tested on: metrazol-induced convulsions; assay: Suppression of metrazol-induced convulsions (antimetrazol); assay type: in vivo, mouse (male CD1); details: Mus musculus, 0.5 h; PO; clonic convulsions, 30 min observation
[5] = target: benzodiazepine site of the GABA-A receptor; assay: Benzodiazepine receptor binding assay (inhibition of 3H-flunitrazepam binding); details: read-out: 3H-Flunitrazepam IC50; ca. 3 nM 3H-flunitrazepam, 10-20 min at 25° C.

SMILES | minimal effective dose ([1]; IP) | minimal effective dose ([1]; PO) | ED50 [2] | ED50 ([3]; IP) | ED50 [4] | IC50 [5] | ED50 ([3]; PO)
O=C1CCn2c(nc3ncccc32)C1C(=O)Nc1c(F)cccc1F (stereo not shown) [CP #9, 6,7-dihydro-8-keto-N-(2,6-difluorophenyl)dipyrido[1,2-a:2',3'-d]imidazole-9-carboxamide] | > 10 mg/kg | > 10 mg/kg | ~30 mg/kg | ~10 mg/kg | ~30 mg/kg | 30.1 nM | 
O=C1CCN2C(=C1C(=O)Nc1c(F)cc(F)cc1F)Nc1cccnc12 [CP #4] | > 10 mg/kg | > 30 mg/kg | ~10 mg/kg | ~10 mg/kg | > 30 mg/kg | 1960 nM | 
O=C1CCn2c(nc3ncccc32)C1C(=O)Nc1c(F)cc(F)cc1F (stereo not shown) [CP #8, 6,7-dihydro-8-keto-N-(2,4,6-trifluorophenyl)dipyrido[1,2-a:2',3'-d]imidazole-9-carboxamide] | > 10 mg/kg | > 30 mg/kg | 10 mg/kg | > 30 mg/kg | > 30 mg/kg | 220 nM | 
O=C1CCN2C(=C1C(=O)Nc1ccccc1F)Nc1cccnc12 [compound 1] | > 10 mg/kg | > 30 mg/kg | 10 mg/kg | 10 mg/kg | > 30 mg/kg |  | 
COCCN1C2=C(C(=O)Nc3ccccc3F)C(=O)CCN2c2ncccc21 [compound 11] |  | > 10 mg/kg |  |  |  | 285 nM | 
O=C1CCN2C(=C1C(=O)Nc1ccncc1)Nc1cccnc12 [compound 3] | > 10 mg/kg | > 30 mg/kg | > 10 mg/kg | > 10 mg/kg | > 30 mg/kg |  | 
O=C1CCn2c(nc3ncccc32)C1C(=O)Nc1ccccc1 (stereo not shown) [CP #6, 6,7-dihydro-8-keto-N-phenyldipyrido[1,2-a:2',3'-d]imidazole-9-carboxamide] | > 10 mg/kg | 30 mg/kg | 3 mg/kg | 3 mg/kg | < 30 mg/kg | 8.3 nM | 
O=C1CCn2c(nc3cccnc32)C1C(=O)Nc1ccccc1 (stereo not shown) [CP #2, 8,9-Dihydro-7-keto-N-phenyldipyrido [1,2-a:3',2'-d] imidazole-6-carboxamide] | > 10 mg/kg | > 30 mg/kg | > 10 mg/kg | > 10 mg/kg | > 30 mg/kg | > 4350 nM | 
O=C1CCN2C(=C1C(=O)Nc1c(F)cccc1F)Nc1cnccc12 [compound 10] | > 10 mg/kg | ~3 mg/kg | > 10 mg/kg |  | > 30 mg/kg | 17.7 nM | 
CN1C2=C(C(=O)Nc3ccccc3F)C(=O)CCN2c2ncccc21 [compound 12] |  | > 10 mg/kg |  |  |  | > 312 nM | 
O=C1CCn2c(nc3ncccc32)C1C(=O)Nc1ccccc1F (stereo not shown) [CP #5, 6,7-dihydro-8-keto-N-(2-fluorophenyl)dipyrido[1,2-a:2',3'-d]imidazole-9-carboxamide] | 10 mg/kg | > 30 mg/kg | 1 mg/kg | 3 mg/kg | 10 mg/kg | 3.5 nM | 
O=C1CCn2c(nc3ncccc32)C1C(=O)Nc1ccncc1 (stereo not shown) [CP #7, 6,7-dihydro-8-keto-N-(4-pyridyl)dipyrido[1,2-a:2',3'-d]imidazole-9-carboxamide] | 30 mg/kg | 10 mg/kg | > 30 mg/kg |  | > 10 mg/kg | 619 nM | > 10 mg/kg

Reference: US5968946A, “Heterocyclic derivatives useful in treating central nervous system disorders” (Ortho-McNeil Pharmaceutical, Inc., priority 1998, dated 1999)
